Results published in ChEMBL document CHEMBL4422651, “Revisiting tubercidin against kinetoplastid parasites: Aromatic substitutions at position 7 improve activity and reduce toxicity” (Eur J Med Chem, 2019).
The source made the active and inactive calls. The rule behind the calls is not given here.

Legend:
[1] = (§1) Inhibition of [3H]-adenosine transport at Trypanosoma brucei Adenosine transporter P1 expressed in pentamidine/diminazene/melaminophenyl arsenical resistant Trypanosoma brucei B48 bloodstream forms after 60 secs by scintillation counting analysis
[2] = tested on: Trypanosoma brucei brucei; assay: Antitrypanosomal activity against Trypanosoma brucei brucei Squib 427 after 48 hrs by alamar blue assay; type: functional, organism-based; conditions: Squib 427, 48 h
Trypanosoma cruzi [3] = assay: Antitrypanosomal activity against nifurtimox-sensitive Trypanosoma cruzi Tulahuen CL2 harboring beta-galactosidase infected in human MRC5 cells after 7 days by resazurin dye-based assay; type: functional, organism-based; conditions: for EC50: Tulahuen CL2, MRC5, 168 h
MRC5 = assay: Cytotoxicity against human MRC5 cells assessed as reduction in cell viability after 3 days by resazurin dye-based assay; conditions: MRC5, 72 h
[4] = (§2) Inhibition of [3H]-adenosine transport at Trypanosoma brucei Adenosine transporter P2 expressed in pentamidine/diminazene/melaminophenyl arsenical resistant Trypanosoma brucei B48 bloodstream forms after 60 secs by scintillation counting analysis
[5] = Selectivity index, ratio of EC50 for human MRC5 cells to EC50 for Trypanosoma brucei rhodesiense STIB-900; type: toxicity; conditions: read-out: Ratio EC50
[6] = Selectivity index, ratio of EC50 for human MRC5 cells to EC50 for Trypanosoma brucei brucei Squib 427; type: toxicity; conditions: read-out: Ratio EC50
[7] = Selectivity index, ratio of EC50 for human MRC5 cells to EC50 for nifurtimox-sensitive Trypanosoma cruzi Tulahuen CL2 harboring beta-galactosidase; type: toxicity; conditions: read-out: Ratio EC50
Trypanosoma cruzi [8] = assay: Potency index, ratio of EC50 for benznidazole to EC50 for test compound for antitrypanosomal activity against nifurtimox-sensitive Trypanosoma cruzi Tulahuen CL2 harboring beta-galactosidase infected in human MRC5 cells after 7 days by resazurin dye-based assay; type: functional
[9] = tested on: Trypanosoma brucei rhodesiense; assay: Antitrypanosomal activity against Trypanosoma brucei rhodesiense STIB-900 after 48 hrs by alamar blue assay; type: functional, organism-based; conditions: STIB-900, 48 h
Leishmania infantum = assay: Antileishmanial activity against Leishmania infantum amastigotes infected in Swiss mouse primary peritoneal macrophages assessed as reduction in parasite burden after 5 days by Giemsa staining-based microscopic analysis; type: functional, organism-based; conditions: 120 h
Trypanosoma brucei [10] = assay: Antitrypanosomal activity against isometamidium resistant Trypanosoma brucei ISMR1 after 48 hrs by alamar blue assay; type: functional, organism-based; conditions: ISMR1, 48 h
Trypanosoma brucei [11] = assay: Antitrypanosomal activity against pentamidine/diminazene/melaminophenyl arsenical resistant Trypanosoma brucei B48 after 48 hrs by alamar blue assay; type: functional, organism-based; conditions: B48, 48 h
Peritoneal macrophage = assay: Cytotoxicity against Swiss mouse primary peritoneal macrophages assessed as reduction in cell viability after 5 days; type: cell-based; conditions: 120 h
Trypanosoma brucei [12] = assay: Antitrypanosomal activity against wild type Trypanosoma brucei Lister 427 after 48 hrs by alamar blue assay; type: functional, organism-based; conditions: Lister 427, 48 h
Trypanosoma brucei [13] = assay: Antitrypanosomal activity against Trypanosoma brucei TbAT1-KO after 48 hrs by alamar blue assay; type: functional, organism-based
Trypanosoma congolense = assay: Antitrypanosomal activity against Trypanosoma congolense by resazurin assay; type: functional, organism-based
Trypanosoma brucei [14] = assay: as §1
Trypanosoma brucei [15] = assay: as §2

Row | Structure (SMILES) | EC50 [2] [µM] | Activity (Trypanosoma cruzi [3]) | EC50 (MRC5) [µM] | selectivity ratio [5] | selectivity ratio [6] | EC50 [9] [µM] | further results
1 | Nc1ncnc2c1c(-c1cccnc1)cn2[C@@H]1O[C@H](CO)[C@@H](O)[C@H]1O | > 64 | inactive | > 64 |  |  |  | Ki [1]: 21.7 µM; Ki [4]: 49.3 µM
2 | Nc1ncnc2c1c(-c1ccc(F)cc1)cn2[C@@H]1O[C@H](CO)[C@@H](O)[C@H]1O | 8.81 |  | > 64 | > 4.4 | > 7.3 | 14.7 | selectivity ratio [7]: > 130; EC50 (Trypanosoma cruzi [3]): 0.49 µM; Ratio EC50 (Trypanosoma cruzi [8]): <=10
3 | Nc1ncnc2c1c(-c1ccncc1)cn2[C@@H]1O[C@H](CO)[C@@H](O)[C@H]1O | > 64 | inactive | 55.8 |  |  |  | Ki [1]: 12.5 µM; Ki [4]: 9.34 µM
4 | Nc1ncnc2c1ccn2[C@@H]1O[C@H](CO)[C@@H](O)[C@H]1O [TUBERCIDIN] | 0.48 |  | 2.23 |  | 4.6 |  | Ki [1]: 78 µM; EC50 (Leishmania infantum): 0.13 µM; EC50 (Trypanosoma brucei [10]): 1.7 µM; EC50 (Trypanosoma brucei [11]): 4.3 µM; Activity (Peritoneal macrophage; mouse, peritoneal macrophage): Toxic; selectivity ratio [7]: 6.5; EC50 (Trypanosoma cruzi [3]): 0.34 µM; EC50 (Trypanosoma brucei [12]): 0.15 µM; Ki [4]: 3.8 µM; EC50 (Trypanosoma brucei [13]): 2.61 µM
5 | O=C(Cn1ccnc1[N+](=O)[O-])NCc1ccccc1 [BENZNIDAZOLE] |  |  | > 64 |  |  |  | selectivity ratio [7]: > 23
6 | N=C(N)c1ccc(OCCCCCOc2ccc(C(=N)N)cc2)cc1 [PENTAMIDINE] |  |  |  |  |  |  | EC50 (Trypanosoma congolense): 1.9 µM; EC50 (Trypanosoma brucei [10]): 0.14 µM; EC50 (Trypanosoma brucei [11]): 0.99 µM; EC50 (Trypanosoma brucei [12]): 0.011 µM; EC50 (Trypanosoma brucei [13]): 0.018 µM
7 | CC[n+]1c(-c2ccccc2)c2cc(N/N=N/c3cccc(C(=N)N)c3)ccc2c2ccc(N)cc21 [ISOMETAMIDIUM] |  |  |  |  |  |  | EC50 (Trypanosoma brucei [10]): 3.1 µM; EC50 (Trypanosoma brucei [11]): 0.56 µM; EC50 (Trypanosoma brucei [12]): 0.65 µM; EC50 (Trypanosoma brucei [13]): 0.75 µM
8 | Nc1ncnc2c1c(-c1cc(Cl)ccn1)cn2[C@@H]1O[C@H](CO)[C@@H](O)[C@H]1O | 8.92 | inactive | 27.3 | 4 | 3.1 | 6.88 | 
9 | COc1ccnc(-c2cn([C@@H]3O[C@H](CO)[C@@H](O)[C@H]3O)c3ncnc(N)c23)c1 | 25.5 | inactive | 7.59 | 0.9 | 0.3 | 8.15 | 
10 | Cc1ccnc(-c2cn([C@@H]3O[C@H](CO)[C@@H](O)[C@H]3O)c3ncnc(N)c23)c1 | 38.2 | inactive | > 64 | > 2.5 | > 1.7 | 25.1 | 
11 | N=C(N)c1ccc(/N=N/Nc2ccc(C(=N)N)cc2)cc1 [DIMINAZENE] |  |  |  |  |  |  | EC50 (Trypanosoma congolense): 0.22 µM; EC50 (Trypanosoma brucei [10]): 2.9 µM; EC50 (Trypanosoma brucei [11]): 7.2 µM; EC50 (Trypanosoma brucei [12]): 0.42 µM; EC50 (Trypanosoma brucei [13]): 4.5 µM
12 | Nc1ncnc2c1ncn2[C@@H]1O[C@H](CO)[C@@H](O)[C@H]1O |  |  |  |  |  |  | Km (Trypanosoma brucei [14]): 0.16 µM; Km (Trypanosoma brucei [15]): 0.53 µM
13 | Nc1ncnc2c1c(-c1ccc(Cl)c(Cl)c1)cn2[C@@H]1O[C@H](CO)[C@@H](O)[C@H]1O | 3.07 |  | 14.7 | 46 | 4.8 | 0.32 | EC50 (Leishmania infantum): 1.67 µM; EC50 (Peritoneal macrophage; Mus musculus, Swiss, Peritoneal macrophage): 20 µM; selectivity ratio [7]: 77.4; EC50 (Trypanosoma cruzi [3]): 0.19 µM; Ratio EC50 (Trypanosoma cruzi [8]): <=10
14 | Nc1ncnc2c1c(-c1cccc(Cl)c1)cn2[C@@H]1O[C@H](CO)[C@@H](O)[C@H]1O | 9.9 | inactive | 32.8 | 4.8 | 3.3 | 6.88 | 
15 | Nc1ncnc2c1c(-c1ccc(Cl)cc1)cn2[C@@H]1O[C@H](CO)[C@@H](O)[C@H]1O | 7.58 |  | 27 |  | 3.6 |  | selectivity ratio [7]: 57.4; Ratio EC50 (Trypanosoma cruzi [8]): <=10
16 | Nc1ncnc2c1c(-c1ccc3ccccc3c1)cn2[C@@H]1O[C@H](CO)[C@@H](O)[C@H]1O | 7.83 | inactive | 7.53 | 1.2 | 0.96 | 6.79 | 
17 | Nc1ncnc2c1c(-c1ccc3ccccc3n1)cn2[C@@H]1O[C@H](CO)[C@@H](O)[C@H]1O | 6.45 | inactive | > 64 | > 17 | > 9.9 | 3.72 | 
